Article PMC10786919, “Design-rules for stapled peptides with in vivo activity and their application to Mdm2/X antagonists” (Nature Communications, 2024)
Where two headings read alike, the source gives them in different places. Positions of bridges follow the written chain, without caps; N, C: chain ends. Non-standard residues stand in square brackets, D forms with d. Residues, ends and D or L forms follow the SMILES beside them. dPhe(4-CF3) = N[C@H](Cc1ccc(C(F)(F)F)cc1)C(=O)O; dTrp(6-F) = N[C@H](Cc1c[nH]c2cc(F)ccc12)C(=O)O; Lys(N3) = [N-]=[N+]=NCCCC[C@H](N)C(=O)O; R8 = C=CCCCCCC[C@@](C)(N)C(=O)O; Cba = N[C@@H](CC1CCC1)C(=O)O; R5 = C=CCCC[C@@](C)(N)C(=O)O; S5 = C=CCCC[C@](C)(N)C(=O)O; βAla = NCCC(=O)O

Assays:
physchem [1] = test: physchem
[2] = system: cells transiently transfected with the NanoLuc-HaloTag vector; test: Nanoclick permeability assay; details: 4Hr
Outline: (§1)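 Azido-peptide permeability was read as loss of NanoBRET signal (donor 450 nm, acceptor 610 nm) after adding NanoBret618-azide at 10 μM final.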

[3] = Experimental LogD (partition coefficient); details: for logD: not stated, Partition Coeff LogD
[4] = Nanoclick permeability assay
Outline: as §1

[5] = system: CellSensor p53RE-bla HCT-116 Cell Line
Outline: (§2)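 Compound dilution series (10 points, 3-fold, 10 mM top stock in DMSO) tested on overnight-plated Ca Ski cells in RPMI1640/10% FBS and on blasticidin-selected p53RE-bla HCT-116 cells in McCoy's 5A; read-out was CellTiter-Glo 2.0 luminescence after room-temperature equilibration.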

Ca Ski cell line = system: Ca Ski cell line
Outline: as §2

physchem [6] = test: physchem; remark: listed apart in the source
physchem [7] = test: physchem; remark: listed apart in the source
[8] = read-out: Cell Proliferation assay EC50, HCT116, p53 WT, HCT116
[9] = read-out: Proliferation EC50 HCT116 (On-target), HCT116
[10] = read-out: Cell Proliferation assay EC50, Ca-Ski, p53 Mut, Ca-Ski
[11] = read-out: Proliferation EC50 Ca Ski (Off-target), Ca Ski
[12] = Nanoclick permeability assay EC50

CC(=O)N[C@@H](CC(C)C)C(=O)N[C@H](C(=O)N[C@@H](Cc1ccccc1)C(=O)N[C@]1(C)CCCCCCC=CCCC[C@@](C)(C(=O)N[C@@H](CO)C(=O)N[C@@H](C)C(=O)N[C@@H](C)C(N)=O)NC(=O)[C@@H](CC2CCC2)NC(=O)[C@H](CC(C)C)NC(=O)[C@H](CCC(N)=O)NC(=O)[C@H](Cc2c[nH]c3ccccc23)NC(=O)[C@H](Cc2ccc(O)cc2)NC(=O)[C@H](CCC(=O)O)NC1=O)[C@@H](C)O [MP-009]
EPSA (physchem [1]): 204 A^2
Nanoclick permeability assay % Effect [2]: 22.02%
logD [3]: 2.7

CC(=O)N[C@@H](C(=O)N[C@H](C)C(=O)N[C@H](Cc1c[nH]c2cc(F)ccc12)C(=O)N[C@H](Cc1ccc(O)cc1)C(=O)N[C@H](C)C(=O)N[C@]1(C)CCCC=CCCC[C@](C)(C(=O)N[C@H](CC(C)C)C(=O)N[C@H](CO)C(=O)N[C@H](C)C(=O)N[C@H](C)C(=O)N[C@H](C)C(=O)N[C@H](C)C(=O)N[C@H](C)C(=O)N[C@H](C)C(N)=O)NC(=O)[C@@H](CCC(N)=O)NC(=O)[C@@H](CCC(=O)O)NC(=O)[C@@H](Cc2ccc(C(F)(F)F)cc2)NC1=O)[C@H](C)O [MP-042] (Ac-[dT][dA][dTrp(6-F)][dY][dA][R5][dPhe(4-CF3)][dE][dQ][R5][dL][dS][dA][dA][dA][dA][dA][dA]-NH2; staple 6-10)
cell entry EC50 [4]: > 10 µM
Nanoclick permeability assay % Effect [2]: 1.941%
EC50 [5, 8]: 4.24 µM
EC50 [5, 9]: 1.5 µM
EC50 (Ca Ski cell line; [10]): 32 µM
EC50 (Ca Ski cell line; [11]): 31 µM

CC(=O)N[C@@H](CCCCN=[N+]=[N-])C(=O)NCCC(=O)N[C@@H](CC(C)C)C(=O)N[C@H](C(=O)N[C@@H](Cc1ccccc1)C(=O)N[C@]1(C)CCCCCCC=CCCC[C@@](C)(C(=O)N[C@@H](CO)C(=O)N[C@@H](C)C(=O)N[C@@H](C)C(N)=O)NC(=O)[C@H](CC2CCC2)NC(=O)[C@H](CCC(N)=O)NC(=O)[C@H](C)NC(=O)[C@H](Cc2c[nH]c3ccccc23)NC(=O)[C@H](Cc2ccc(O)cc2)NC(=O)[C@H](Cc2c[nH]c3ccccc23)NC1=O)[C@@H](C)O [MP-185] (Ac-[Lys(N3)][βAla]LTF[R8]WYWAQ[Cba][S5]SAA-NH2; staple 6-13)
EPSA (physchem [1]): 226 A^2
cell entry EC50 [4, 12]: 0.0774 µM
Nanoclick permeability assay % Effect [2]: 140.4%
logD [3]: 4
EC50 ([5]; 72 h): 1.97 µM
EC50 (Ca Ski cell line; 72 h): > 49.8 µM

CC(=O)N[C@@H](C(=O)N[C@H](C)C(=O)N[C@H](Cc1c[nH]c2cc(F)ccc12)C(=O)N[C@H](Cc1ccc(O)cc1)C(=O)N[C@H](C)C(=O)N[C@]1(C)CCCC=CCCC[C@](C)(C(=O)N[C@H](CC(C)C)C(=O)N[C@H](CO)C(=O)N[C@H](C)C(=O)N[C@H](C)C(=O)N[C@H](C)C(N)=O)NC(=O)[C@@H](CCC(N)=O)NC(=O)[C@@H](CCC(=O)O)NC(=O)[C@@H](Cc2ccc(C(F)(F)F)cc2)NC1=O)[C@H](C)O [MP-0230] (Ac-[dT][dA][dTrp(6-F)][dY][dA][R5][dPhe(4-CF3)][dE][dQ][R5][dL][dS][dA][dA][dA]-NH2; staple 6-10)
cell entry EC50 [4, 12]: > 10 µM
Nanoclick permeability assay % Effect [2]: 30.67%
EPSA (physchem [6]): 190 A^2

CC(=O)N[C@@H](CCCCN=[N+]=[N-])C(=O)NCCC(=O)N[C@@H](CC(N)=O)C(=O)N[C@H](C(=O)N[C@@H](Cc1ccccc1)C(=O)N[C@]1(C)CCCCCCC=CCCC[C@@](C)(C(=O)N[C@@H](CC(N)=O)C(=O)N[C@@H](CC(N)=O)C(=O)N[C@@H](CC(N)=O)C(N)=O)NC(=O)[C@H](CC2CCC2)NC(=O)[C@H](CCC(N)=O)NC(=O)[C@H](CC(N)=O)NC(=O)[C@H](Cc2c[nH]c3ccccc23)NC(=O)[C@H](Cc2ccc(O)cc2)NC(=O)[C@H](CC(N)=O)NC1=O)[C@@H](C)O [MP-359, azide-ATSP-7041 (L1N, E5N, A8N, S12N, A13N, A14N)] (Ac-[Lys(N3)][βAla]NTF[R8]NYWNQ[Cba][S5]NNN-NH2; staple 6-13)
EPSA (physchem [7]): 238 A^2
cell entry EC50 [4]: 0.38 µM
Nanoclick permeability assay % Effect [2]: 112.9%
logD [3]: 2.12
EC50 ([5]; read-out: Cell Proliferation assay EC50, p53 WT, HCT116): 27.1 µM
EC50 (Ca Ski cell line; read-out: Cell Proliferation assay EC50, p53 Mut, Ca-Ski): > 49.8 µM

CC(C)C[C@@H](NC(=O)[C@@]1(C)CCCC=CCCC[C@@](C)(NC(=O)[C@@H](C)NC(=O)[C@@H](Cc2ccc(O)cc2)NC(=O)[C@@H](Cc2c[nH]c3cc(F)ccc23)NC(=O)[C@@H](C)NC(=O)[C@H](N)[C@H](C)O)C(=O)N[C@H](Cc2ccc(C(F)(F)F)cc2)C(=O)N[C@H](CCC(=O)O)C(=O)N[C@H](CCC(N)=O)C(=O)N1)C(=O)N[C@H](CO)C(N)=O [MP-795] (H-[dT][dA][dTrp(6-F)][dY][dA][R5][dPhe(4-CF3)][dE][dQ][R5][dL][dS]-NH2; staple 6-10)
cell entry EC50 [4]: > 10 µM
Nanoclick permeability assay % Effect [2]: 23.68%
EPSA (physchem [6]): 234 A^2
logD [3]: 2.32
EC50 [5, 8]: 26.4 µM
EC50 (Ca Ski cell line; [10]): 22.5 µM

CC(=O)N[C@@H](C(=O)N[C@H](C)C(=O)N[C@H](Cc1c[nH]c2cc(F)ccc12)C(=O)N[C@H](Cc1ccc(O)cc1)C(=O)N[C@H](C)C(=O)N[C@]1(C)CCCC=CCCC[C@](C)(C(=O)N[C@H](CC(C)C)C(=O)N[C@H](CO)C(N)=O)NC(=O)[C@@H](CCC(N)=O)NC(=O)[C@@H](CCC(=O)O)NC(=O)[C@@H](Cc2ccc(C(F)(F)F)cc2)NC1=O)[C@H](C)O [MP-797] (Ac-[dT][dA][dTrp(6-F)][dY][dA][R5][dPhe(4-CF3)][dE][dQ][R5][dL][dS]-NH2; staple 6-10)
cell entry EC50 [4]: > 10 µM
Nanoclick permeability assay % Effect [2]: 69.79%
EPSA (physchem [6]): 198 A^2
EC50 [5, 8]: 9.09 µM
EC50 [5, 9]: 9.1 µM
EC50 (Ca Ski cell line; [10]): 30.4 µM
EC50 (Ca Ski cell line; [11]): 30.4 µM

CC(=O)N[C@@H](CCCCN=[N+]=[N-])C(=O)NCCC(=O)N[C@@H](CC(C)C)C(=O)N[C@H](C(=O)N[C@@H](Cc1ccccc1)C(=O)N[C@]1(C)CCCCCCC=CCCC[C@@](C)(C(=O)N2CCC[C@@H]2C(=O)N2CCC[C@@H]2C(=O)N2CCC[C@@H]2C(=O)N2CCC[C@@H]2C(=O)N2CCC[C@@H]2C(=O)N2CCC[C@@H]2C(N)=O)NC(=O)[C@H](CC2CCC2)NC(=O)[C@H](CCC(N)=O)NC(=O)[C@H](C)NC(=O)[C@H](Cc2c[nH]c3ccccc23)NC(=O)[C@H](Cc2ccc(O)cc2)NC(=O)[C@H](CCC(=O)O)NC1=O)[C@@H](C)O [MP-896]
cell entry EC50 [4]: 1.42 µM
Nanoclick permeability assay % Effect [2]: 114.3%
Partition Coeff LogD [3]: Poorly Behaved
EC50 (Ca Ski cell line; [10]): > 49.8 µM

CC(=O)N[C@@H](C(=O)N[C@H](C)C(=O)N[C@H](Cc1c[nH]c2cc(F)ccc12)C(=O)N[C@H](Cc1ccc(O)cc1)C(=O)N[C@H](C)C(=O)N[C@]1(C)CCCC=CCCC[C@](C)(C(=O)N[C@H](CC(C)C)C(=O)N[C@H](CO)C(=O)N[C@H](C)C(=O)N[C@H](C)C(=O)N[C@H](C)C(=O)N[C@H](C)C(=O)N[C@H](C)C(=O)N[C@H](C)C(=O)N[C@H](C)C(=O)N[C@H](C)C(=O)N[C@H](C)C(N)=O)NC(=O)[C@@H](CCC(N)=O)NC(=O)[C@@H](CCC(=O)O)NC(=O)[C@@H](Cc2ccc(C(F)(F)F)cc2)NC1=O)[C@H](C)O [MP-1230] (Ac-[dT][dA][dTrp(6-F)][dY][dA][R5][dPhe(4-CF3)][dE][dQ][R5][dL][dS][dA][dA][dA][dA][dA][dA][dA][dA][dA]-NH2; staple 6-10)
EPSA (physchem [6]): 190 A^2
EC50 [5, 8]: 21.4 µM
EC50 (Ca Ski cell line; [10]): > 49.8 µM
